Values of other authors, collected in patent US9062086B2, “N-acetyl L-cysteine chelates and methods for making and using the same” (Viva Pharmaceutical, Inc., priority 2013, dated 2015).

Key:
[1] = molecular target: c-Glutamylcysteine synthetase (Homo sapiens, UniProt P48506); conditions: read-out: Ki (feedback inhibition by GSH); background statement
[2] = much higher than NAC; background statement

Chain of c-Glutamylcysteine synthetase (P48506 whole entry): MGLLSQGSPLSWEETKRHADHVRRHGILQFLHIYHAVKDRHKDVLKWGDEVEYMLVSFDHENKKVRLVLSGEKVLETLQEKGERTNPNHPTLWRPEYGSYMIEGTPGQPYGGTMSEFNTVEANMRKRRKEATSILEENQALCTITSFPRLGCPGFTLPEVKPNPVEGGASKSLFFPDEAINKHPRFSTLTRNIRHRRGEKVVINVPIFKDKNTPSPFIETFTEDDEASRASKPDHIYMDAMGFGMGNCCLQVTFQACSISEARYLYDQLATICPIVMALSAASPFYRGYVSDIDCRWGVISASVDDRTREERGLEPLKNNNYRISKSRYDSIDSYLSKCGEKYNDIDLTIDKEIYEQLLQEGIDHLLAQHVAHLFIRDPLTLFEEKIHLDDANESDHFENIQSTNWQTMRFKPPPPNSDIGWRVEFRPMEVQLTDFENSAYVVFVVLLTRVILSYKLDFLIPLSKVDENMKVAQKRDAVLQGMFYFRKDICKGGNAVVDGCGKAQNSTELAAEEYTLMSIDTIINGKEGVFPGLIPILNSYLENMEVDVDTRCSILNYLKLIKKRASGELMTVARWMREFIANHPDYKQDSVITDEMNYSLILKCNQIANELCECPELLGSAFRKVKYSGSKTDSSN

N[C@@H](CCC(=O)N[C@@H](CS)C(=O)NCC(=O)O)C(=O)O [GSH, glutathione]
Ki [1]: ~1500 µM

CCOC(=O)[C@H](CS)NC(C)=O [NACET, N-acetylcysteine ethyl ester]
bioavailability [2]: around 60%
